# Article PMC7366380, “Discovery of a Potent and Selective Covalent Inhibitor and Activity-Based Probe for the Deubiquitylating Enzyme UCHL1, with Antifibrotic Activity” (Journal of the American Chemical Society, 2020)
# Values joined by “and” are separate entries in the source; they are usually repeats but may differ in a detail not shown here. Equal values may be shown once.
# Key:
# Assay in all cases: In-cell proteome-wide competitive ABPP, HEK293: other DUBs and proteins
# [1] = target: DUBs and other proteins in HEK293 cells (Homo sapiens, UniProt Q93008); settings: replicates A-C; for Log2 reporter intensity values: USP9X;USP9Y: competition with ABP 2, DMSO substract (FC); for Log2 reporter intensity values: USP9X;USP9Y, DMSO subtracted
# [2] = target: DUBs and other proteins in HEK293 cells (Homo sapiens, UniProt P54578); settings: replicates A-C; for Log2 reporter intensity values: USP14: competition with ABP 2, DMSO substract (FC); for Log2 reporter intensity values: USP14, DMSO subtracted
# [3] = target: DUBs and other proteins in HEK293 cells (Homo sapiens, UniProt Q7L5N1); settings: for Log2 reporter intensity values, COPS6: TMT replicates; for Log2 reporter intensity values: COPS6: competition with ABP 2, DMSO substract (FC); for Log2 reporter intensity values: COPS6 / Log2 reporter intensity values: replicates A-C; for Log2 t-test Difference / Log2 reporter intensity values: COPS6
# [4] = target: DUBs and other proteins in HEK293 cells (Homo sapiens, UniProt Q6P2Q9); settings: replicates A-C; for Log2 reporter intensity values: PRPF8: competition with ABP 2, DMSO substract (FC); for Log2 reporter intensity values: PRPF8, DMSO subtracted
# [5] = target: DUBs and other proteins in HEK293 cells (Homo sapiens, UniProt Q92905); settings: for Log2 reporter intensity values, COPS5: TMT replicates; for Log2 reporter intensity values: COPS5: competition with ABP 2, DMSO substract (FC); for Log2 reporter intensity values: COPS5 / Log2 reporter intensity values: replicates A-C; for Log2 t-test Difference / Log2 reporter intensity values: COPS5
# [6] = target: DUBs and other proteins in HEK293 cells (Homo sapiens, UniProt O00487); settings: replicates A-C; for Log2 reporter intensity values: PSMD14: competition with ABP 2, DMSO substract (FC); for Log2 reporter intensity values: PSMD14, DMSO subtracted
# [7] = target: T1, DUBs and other proteins in HEK293 cells (Homo sapiens, UniProt Q96RU2); settings: replicates A-C; for Log2 reporter intensity values: USP28: competition with ABP 2, DMSO substract (FC); for Log2 reporter intensity values: USP28, DMSO subtracted
# T1 sequence (Q96RU2 1-1077): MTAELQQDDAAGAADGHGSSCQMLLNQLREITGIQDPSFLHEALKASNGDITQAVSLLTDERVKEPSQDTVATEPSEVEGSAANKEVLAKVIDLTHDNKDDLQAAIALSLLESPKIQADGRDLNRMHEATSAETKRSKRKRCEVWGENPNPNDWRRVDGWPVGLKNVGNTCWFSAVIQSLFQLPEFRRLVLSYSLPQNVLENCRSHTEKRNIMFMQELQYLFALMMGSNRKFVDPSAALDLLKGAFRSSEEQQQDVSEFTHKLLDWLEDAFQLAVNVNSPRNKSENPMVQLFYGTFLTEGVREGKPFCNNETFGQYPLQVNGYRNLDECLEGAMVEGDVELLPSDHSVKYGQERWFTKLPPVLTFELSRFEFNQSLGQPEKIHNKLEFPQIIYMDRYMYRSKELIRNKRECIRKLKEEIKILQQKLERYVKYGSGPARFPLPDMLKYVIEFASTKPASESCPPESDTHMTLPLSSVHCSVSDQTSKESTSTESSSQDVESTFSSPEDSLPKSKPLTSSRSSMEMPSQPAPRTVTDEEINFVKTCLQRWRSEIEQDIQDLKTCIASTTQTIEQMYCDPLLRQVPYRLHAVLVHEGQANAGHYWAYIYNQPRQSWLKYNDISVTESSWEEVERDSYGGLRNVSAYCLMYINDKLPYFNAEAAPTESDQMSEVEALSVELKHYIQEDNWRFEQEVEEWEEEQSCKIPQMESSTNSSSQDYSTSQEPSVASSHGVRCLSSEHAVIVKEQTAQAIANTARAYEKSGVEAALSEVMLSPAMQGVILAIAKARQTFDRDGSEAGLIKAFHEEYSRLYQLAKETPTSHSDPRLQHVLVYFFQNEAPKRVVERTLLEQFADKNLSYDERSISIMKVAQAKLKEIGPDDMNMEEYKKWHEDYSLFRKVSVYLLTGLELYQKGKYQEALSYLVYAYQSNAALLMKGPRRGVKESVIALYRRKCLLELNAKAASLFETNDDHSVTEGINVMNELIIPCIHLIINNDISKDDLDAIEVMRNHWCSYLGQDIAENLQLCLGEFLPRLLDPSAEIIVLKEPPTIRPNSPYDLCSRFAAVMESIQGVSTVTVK
# [8] = 1 μM 3 (60 min) + 20 nM ABP 2 (10 min), All values
# [9] = 1 μM 3 (60 min) + 20 nM ABP 2 (10 min), DMSO subtracted
# [10] = 4 μM 3 (60 min) + 20 nM ABP 2 (10 min), All values
# [11] = 4 μM 3 (60 min) + 20 nM ABP 2 (10 min), DMSO subtracted
# DUBs and other proteins in HEK293 cells (Homo sapiens, UniProt Q7L5N1), sequence (Q7L5N1 whole entry): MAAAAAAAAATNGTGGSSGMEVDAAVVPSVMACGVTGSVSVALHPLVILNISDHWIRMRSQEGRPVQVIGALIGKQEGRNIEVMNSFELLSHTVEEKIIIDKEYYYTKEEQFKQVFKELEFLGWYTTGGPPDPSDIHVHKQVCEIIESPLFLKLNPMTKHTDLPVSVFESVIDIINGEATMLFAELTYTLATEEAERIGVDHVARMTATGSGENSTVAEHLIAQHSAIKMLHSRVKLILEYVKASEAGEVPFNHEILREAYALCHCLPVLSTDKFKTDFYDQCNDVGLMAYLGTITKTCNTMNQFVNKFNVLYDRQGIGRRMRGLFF
# DUBs and other proteins in HEK293 cells (Homo sapiens, UniProt O00487), sequence (O00487 whole entry): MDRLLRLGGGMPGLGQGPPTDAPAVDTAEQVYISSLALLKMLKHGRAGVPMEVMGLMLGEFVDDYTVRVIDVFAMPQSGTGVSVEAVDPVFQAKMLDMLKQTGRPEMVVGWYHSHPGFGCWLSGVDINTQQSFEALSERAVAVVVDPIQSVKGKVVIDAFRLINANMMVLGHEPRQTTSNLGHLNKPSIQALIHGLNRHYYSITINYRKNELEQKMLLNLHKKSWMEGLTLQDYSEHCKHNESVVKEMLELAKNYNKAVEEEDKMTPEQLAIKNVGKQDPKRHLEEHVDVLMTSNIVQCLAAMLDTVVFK
# DUBs and other proteins in HEK293 cells (Homo sapiens, UniProt Q92905), sequence (Q92905 whole entry): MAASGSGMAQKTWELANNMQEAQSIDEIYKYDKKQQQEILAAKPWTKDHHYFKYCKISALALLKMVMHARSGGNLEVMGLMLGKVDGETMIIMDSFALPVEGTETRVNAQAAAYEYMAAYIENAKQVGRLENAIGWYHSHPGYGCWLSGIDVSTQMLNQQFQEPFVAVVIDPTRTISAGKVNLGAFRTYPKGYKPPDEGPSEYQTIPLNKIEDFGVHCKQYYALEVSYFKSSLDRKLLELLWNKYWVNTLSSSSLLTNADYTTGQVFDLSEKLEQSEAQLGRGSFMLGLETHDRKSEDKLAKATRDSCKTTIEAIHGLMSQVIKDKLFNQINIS
# DUBs and other proteins in HEK293 cells (Homo sapiens, UniProt Q93008), sequence (Q93008 whole entry): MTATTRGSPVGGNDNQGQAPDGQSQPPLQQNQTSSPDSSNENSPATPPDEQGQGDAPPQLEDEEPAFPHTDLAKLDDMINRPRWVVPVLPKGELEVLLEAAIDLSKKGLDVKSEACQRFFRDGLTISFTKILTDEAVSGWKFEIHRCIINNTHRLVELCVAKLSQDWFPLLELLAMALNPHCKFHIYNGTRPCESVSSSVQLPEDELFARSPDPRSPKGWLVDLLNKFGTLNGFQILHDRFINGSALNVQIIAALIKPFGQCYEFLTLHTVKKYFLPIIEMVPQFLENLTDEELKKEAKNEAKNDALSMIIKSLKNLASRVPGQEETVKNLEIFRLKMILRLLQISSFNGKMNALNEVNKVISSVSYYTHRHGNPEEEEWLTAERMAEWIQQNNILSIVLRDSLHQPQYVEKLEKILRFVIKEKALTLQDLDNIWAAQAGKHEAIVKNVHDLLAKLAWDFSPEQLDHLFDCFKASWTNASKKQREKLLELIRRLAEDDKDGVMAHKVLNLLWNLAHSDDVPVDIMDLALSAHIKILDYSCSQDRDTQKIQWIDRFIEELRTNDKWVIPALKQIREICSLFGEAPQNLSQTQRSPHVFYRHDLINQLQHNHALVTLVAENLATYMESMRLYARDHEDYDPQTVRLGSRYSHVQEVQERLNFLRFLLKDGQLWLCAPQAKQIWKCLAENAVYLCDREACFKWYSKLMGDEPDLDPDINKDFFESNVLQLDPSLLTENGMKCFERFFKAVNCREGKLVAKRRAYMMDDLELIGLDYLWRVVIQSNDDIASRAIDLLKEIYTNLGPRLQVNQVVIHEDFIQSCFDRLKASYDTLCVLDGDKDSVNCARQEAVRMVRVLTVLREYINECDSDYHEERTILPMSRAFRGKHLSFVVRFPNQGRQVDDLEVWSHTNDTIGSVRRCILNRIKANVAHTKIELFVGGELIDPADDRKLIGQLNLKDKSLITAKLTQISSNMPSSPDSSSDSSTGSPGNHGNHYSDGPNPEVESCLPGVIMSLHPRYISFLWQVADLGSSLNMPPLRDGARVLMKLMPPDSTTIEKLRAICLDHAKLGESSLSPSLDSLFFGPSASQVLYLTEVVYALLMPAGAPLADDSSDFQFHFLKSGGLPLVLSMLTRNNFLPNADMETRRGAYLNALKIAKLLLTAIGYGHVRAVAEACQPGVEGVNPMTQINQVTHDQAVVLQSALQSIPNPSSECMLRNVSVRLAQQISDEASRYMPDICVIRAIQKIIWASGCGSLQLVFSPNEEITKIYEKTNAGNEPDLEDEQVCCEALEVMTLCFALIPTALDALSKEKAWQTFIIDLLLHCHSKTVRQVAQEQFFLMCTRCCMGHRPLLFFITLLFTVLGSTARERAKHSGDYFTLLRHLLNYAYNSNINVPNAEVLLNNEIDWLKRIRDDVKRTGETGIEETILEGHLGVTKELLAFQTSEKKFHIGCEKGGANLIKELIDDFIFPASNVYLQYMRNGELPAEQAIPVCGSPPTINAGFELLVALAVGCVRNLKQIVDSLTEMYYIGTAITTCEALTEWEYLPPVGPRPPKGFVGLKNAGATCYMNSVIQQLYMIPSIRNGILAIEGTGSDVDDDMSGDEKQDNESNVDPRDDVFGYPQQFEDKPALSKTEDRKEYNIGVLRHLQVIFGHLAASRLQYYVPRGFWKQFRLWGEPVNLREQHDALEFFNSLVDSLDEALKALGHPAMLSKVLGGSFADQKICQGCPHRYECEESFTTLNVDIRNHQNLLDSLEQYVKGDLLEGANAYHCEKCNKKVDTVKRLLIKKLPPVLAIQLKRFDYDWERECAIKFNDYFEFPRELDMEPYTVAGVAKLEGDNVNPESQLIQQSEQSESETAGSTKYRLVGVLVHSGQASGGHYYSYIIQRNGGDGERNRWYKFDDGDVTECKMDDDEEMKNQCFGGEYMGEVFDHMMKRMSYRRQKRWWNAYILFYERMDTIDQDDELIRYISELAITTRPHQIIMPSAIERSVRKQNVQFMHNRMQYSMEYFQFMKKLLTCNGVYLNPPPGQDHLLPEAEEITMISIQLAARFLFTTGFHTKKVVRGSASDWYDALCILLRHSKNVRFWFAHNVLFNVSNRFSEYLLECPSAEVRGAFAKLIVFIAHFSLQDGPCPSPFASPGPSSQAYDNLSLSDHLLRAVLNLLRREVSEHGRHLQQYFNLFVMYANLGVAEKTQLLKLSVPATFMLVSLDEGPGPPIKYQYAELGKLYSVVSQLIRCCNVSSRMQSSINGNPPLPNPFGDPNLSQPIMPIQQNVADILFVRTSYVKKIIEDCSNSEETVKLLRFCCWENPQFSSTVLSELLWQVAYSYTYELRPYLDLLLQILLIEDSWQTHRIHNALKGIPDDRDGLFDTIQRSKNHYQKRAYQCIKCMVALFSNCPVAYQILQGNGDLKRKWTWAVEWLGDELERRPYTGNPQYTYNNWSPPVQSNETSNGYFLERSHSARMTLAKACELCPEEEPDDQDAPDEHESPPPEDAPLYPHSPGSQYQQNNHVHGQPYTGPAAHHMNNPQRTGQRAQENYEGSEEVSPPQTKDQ
# DUBs and other proteins in HEK293 cells (Homo sapiens, UniProt P54578), sequence (P54578 whole entry): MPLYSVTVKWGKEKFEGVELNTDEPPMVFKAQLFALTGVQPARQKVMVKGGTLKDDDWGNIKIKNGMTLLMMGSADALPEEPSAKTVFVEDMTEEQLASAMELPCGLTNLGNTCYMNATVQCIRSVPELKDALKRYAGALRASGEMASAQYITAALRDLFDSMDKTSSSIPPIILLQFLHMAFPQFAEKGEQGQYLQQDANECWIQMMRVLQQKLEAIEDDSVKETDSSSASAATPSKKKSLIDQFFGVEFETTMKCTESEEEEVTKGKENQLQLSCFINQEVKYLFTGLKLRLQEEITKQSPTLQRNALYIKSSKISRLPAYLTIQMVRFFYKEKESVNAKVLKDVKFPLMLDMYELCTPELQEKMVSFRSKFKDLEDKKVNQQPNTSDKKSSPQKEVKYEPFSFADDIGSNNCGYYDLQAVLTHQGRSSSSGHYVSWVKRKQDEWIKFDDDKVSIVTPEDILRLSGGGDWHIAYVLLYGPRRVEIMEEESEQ
structure (smiles),measurement,setting,value
N#CN1CCC[C@@H]1C(=O)N1CCc2c(-c3c[nH]c4ncccc34)cccc21 [Compound 3],Log2 reporter intensity values: USP9X;USP9Y,[1]; 3 at 1 μM,1.02 and 0.9178 and 0.9768
same,Log2 reporter intensity values: USP9X;USP9Y,[1]; 3 at 4 μM,0.9914 and 0.9828 and 0.9945
same,Log2 reporter intensity values,[1]; 3_1 μM,0.02022 and -0.08228 and -0.02322
same,Log2 reporter intensity values,[1]; 3_4 μM,-0.008621 and -0.01719 and -0.00552
same,Log2 reporter intensity values,[1]; 3 at 1 μM,0.02892 and -0.1238 and -0.03385
same,Log2 reporter intensity values,[1]; 3 at 4 μM,-0.01245 and -0.02497 and -0.007941
same,Log2 reporter intensity values: USP14,[2]; 3 at 1 μM,1.142 and 1.077 and 1.079
same,Log2 reporter intensity values: USP14,[2]; 3 at 4 μM,1.079 and 1.198 and 1.16
same,Log2 reporter intensity values,[2]; 3_1 μM,0.1415 and 0.07672 and 0.07886
same,Log2 reporter intensity values,[2]; 3_4 μM,0.07915 and 0.1978 and 0.16
same,Log2 reporter intensity values,[2]; 3 at 1 μM,0.1912 and 0.1069 and 0.1098
same,Log2 reporter intensity values,[2]; 3 at 4 μM,0.1102 and 0.2606 and 0.2145
same,"Log2 reporter intensity values, COPS6",[3]; [8],0.04099 and 0.07831 and 0.06581
same,"Log2 reporter intensity values, COPS6",[3]; [9],0.02857 and 0.06589 and 0.0534
same,"Log2 reporter intensity values, COPS6",[3]; [10],-0.1551 and -0.06324 and -0.1331
same,"Log2 reporter intensity values, COPS6",[3]; [11],-0.1675 and -0.07565 and -0.1455
same,Log2 reporter intensity values: COPS6,[3]; 3 at 1 μM,1.02 and 1.047 and 1.038
same,Log2 reporter intensity values: COPS6,[3]; 3 at 4 μM,0.8904 and 0.9489 and 0.9041
same,Log2 t-test Difference,[3]; 3 - 1 μM,0.00565
same,Log2 t-test Difference,[3]; 3 - 4 μM,-0.1732
same,Log2 reporter intensity values,"[3]; 3_1 μM, DMSO subtracted",0.01989 and 0.04662 and 0.0376
same,Log2 reporter intensity values,"[3]; 3_4 μM, DMSO subtracted",-0.1098 and -0.0512 and -0.09603
same,Log2 reporter intensity values,"[3]; 3 at 1 μM, DMSO subtracted",0.02857 and 0.06589 and 0.0534
same,Log2 reporter intensity values,"[3]; 3 at 4 μM, DMSO subtracted",-0.1675 and -0.07565 and -0.1455
same,Log2 reporter intensity values: PRPF8,[4]; 3 at 1 μM,0.9503 and 0.8885 and 0.9546
same,Log2 reporter intensity values: PRPF8,[4]; 3 at 4 μM,0.9411 and 0.9829 and 0.9624
same,Log2 reporter intensity values,[4]; 3_1 μM,-0.0499 and -0.1118 and -0.04563
same,Log2 reporter intensity values,[4]; 3_4 μM,-0.05909 and -0.0173 and -0.03782
same,Log2 reporter intensity values,[4]; 3 at 1 μM,-0.07348 and -0.1706 and -0.06701
same,Log2 reporter intensity values,[4]; 3 at 4 μM,-0.08751 and -0.02483 and -0.05526
same,"Log2 reporter intensity values, COPS5",[5]; [8],0.001825 and 0.1477 and 0.03353
same,"Log2 reporter intensity values, COPS5",[5]; [9],0.05994 and 0.2058 and 0.09165
same,"Log2 reporter intensity values, COPS5",[5]; [10],-0.03978 and -0.2063 and -0.1486
same,"Log2 reporter intensity values, COPS5",[5]; [11],0.01834 and -0.1481 and -0.09052
same,Log2 reporter intensity values: COPS5,[5]; 3 at 1 μM,1.042 and 1.153 and 1.066
same,Log2 reporter intensity values: COPS5,[5]; 3 at 4 μM,1.013 and 0.9024 and 0.9392
same,Log2 t-test Difference,[5]; 3 - 1 μM,-0.04319
same,Log2 t-test Difference,[5]; 3 - 4 μM,-0.2358
same,Log2 reporter intensity values,"[5]; 3_1 μM, DMSO subtracted",0.04234 and 0.1532 and 0.0655
same,Log2 reporter intensity values,"[5]; 3_4 μM, DMSO subtracted",0.01271 and -0.09767 and -0.0609
same,Log2 reporter intensity values,"[5]; 3 at 1 μM, DMSO subtracted",0.05994 and 0.2058 and 0.09165
same,Log2 reporter intensity values,"[5]; 3 at 4 μM, DMSO subtracted",0.01834 and -0.1481 and -0.09052
same,Log2 reporter intensity values: PSMD14,[6]; 3 at 1 μM,1.063 and 1.033 and 1.055
same,Log2 reporter intensity values: PSMD14,[6]; 3 at 4 μM,1.048 and 1.127 and 1.122
same,Log2 reporter intensity values,[6]; 3_1 μM,0.06036 and 0.03045 and 0.0523
same,Log2 reporter intensity values,[6]; 3_4 μM,0.04582 and 0.1244 and 0.1197
same,Log2 reporter intensity values,[6]; 3 at 1 μM,0.08818 and 0.04699 and 0.07719
same,Log2 reporter intensity values,[6]; 3 at 4 μM,0.06829 and 0.1725 and 0.1665
same,Log2 reporter intensity values: USP28,[7]; 3 at 1 μM,1.351 and 1.11 and 0.8433
same,Log2 reporter intensity values: USP28,[7]; 3 at 4 μM,0.6356 and 0.4265 and 0.9775
same,Log2 reporter intensity values,[7]; 3_1 μM,0.3111 and 0.07023 and -0.1965
same,Log2 reporter intensity values,[7]; 3_4 μM,-0.4041 and -0.6132 and -0.06225
same,Log2 reporter intensity values,[7]; 3 at 1 μM,0.4339 and 0.1505 and -0.246
same,Log2 reporter intensity values,[7]; 3 at 4 μM,-0.6539 and -1.229 and -0.03288
